From the supplement of paper PMC9938120

Assays:
Test in all cases: drug sensitivity score (DSS3, normalised partial AUC of % inhibition dose-response) (DSS (score)); higher = more sensitive (stronger inhibition of viability); extreme values may be limits of the assay
FMOC27 = patient-derived low-grade serous ovarian cancer cells; details: 72 h; library: FO5A; assay format: 2D, 384-well, CellTiter-Glo
Method in brief: (§1)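 Patient-derived ovarian cancer cells (early passage, under 10) were dispensed onto 384-well flat clear-bottom plates pre-plated with compounds at five concentrations covering a 10,000-fold range. Plates were incubated 72 h at 37 °C, 5% CO2, and viability was read with CellTiter-Glo. Data were processed in Breeze. The drug sensitivity score (DSS3) is a partial area under the percent-inhibition dose-response curve, divided by the log of the upper asymptote; higher means more sensitive.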

FMOC02_2 = patient-derived low-grade serous ovarian cancer cells; details: 72 h; library: FO5A; assay format: 2D, 384-well, CellTiter-Glo
Method in brief: as §1

FMOC09 = patient-derived high-grade serous ovarian cancer cells; details: 72 h; library: FO5A; assay format: 2D, 384-well, CellTiter-Glo
Method in brief: as §1

FMOC17 = patient-derived low-grade serous ovarian cancer cells; details: 72 h; library: FO5A; assay format: 2D, 384-well, CellTiter-Glo
Method in brief: as §1

FMOC02_1 = patient-derived low-grade serous ovarian cancer cells; details: 72 h; library: FO5A; assay format: 2D, 384-well, CellTiter-Glo
Method in brief: as §1

FMOC28 = patient-derived low-grade serous ovarian cancer cells; details: 72 h; library: FO5A; assay format: 2D, 384-well, CellTiter-Glo
Method in brief: as §1

FMOC03 = patient-derived mucinous ovarian cancer cells; details: 72 h; library: FO5A; assay format: 2D, 384-well, CellTiter-Glo
Method in brief: as §1

FMOC24 = patient-derived high-grade serous ovarian cancer cells; details: 72 h; library: FO5A; assay format: 2D, 384-well, CellTiter-Glo
Method in brief: as §1

FMOC06 = patient-derived mucinous ovarian cancer cells; details: 72 h; library: FO5A; assay format: 2D, 384-well, CellTiter-Glo
Method in brief: as §1

FMOC04 = patient-derived high-grade serous ovarian cancer cells; details: 72 h; library: FO5A; assay format: 2D, 384-well, CellTiter-Glo
Method in brief: as §1

FMOC11 = patient-derived high-grade serous ovarian cancer cells; details: 72 h; library: FO5A; assay format: 2D, 384-well, CellTiter-Glo
Method in brief: as §1

FMOC14 = patient-derived high-grade serous ovarian cancer cells; details: 72 h; library: FO5A; assay format: 2D, 384-well, CellTiter-Glo
Method in brief: as §1

FMOC25_1 = patient-derived low-grade serous ovarian cancer cells; details: 72 h; library: FO4B; assay format: 2D, 384-well, CellTiter-Glo
Method in brief: as §1

FMOC02_3 = patient-derived low-grade serous ovarian cancer cells; details: 72 h; library: FO5A; assay format: 2D, 384-well, CellTiter-Glo
Method in brief: as §1

FMOC25_2 = patient-derived low-grade serous ovarian cancer cells; details: 72 h; library: FO5A; assay format: 2D, 384-well, CellTiter-Glo
Method in brief: as §1

FMOC22 = patient-derived mucinous ovarian cancer cells; details: 72 h; library: FO5A; assay format: 2D, 384-well, CellTiter-Glo
Method in brief: as §1

SMILES | drug sensitivity score (FMOC27) | drug sensitivity score (FMOC02_2) | drug sensitivity score (FMOC09) | drug sensitivity score (FMOC17) | drug sensitivity score (FMOC02_1) | drug sensitivity score (FMOC28) | drug sensitivity score (FMOC03) | drug sensitivity score (FMOC24) | drug sensitivity score (FMOC06) | drug sensitivity score (FMOC04) | drug sensitivity score (FMOC11) | drug sensitivity score (FMOC14) | drug sensitivity score (FMOC25_1) | drug sensitivity score (FMOC02_3) | drug sensitivity score (FMOC25_2) | drug sensitivity score (FMOC22)
COc1cc(CCc2cc(NC(=O)c3ccc(N4CC(C)NC(C)C4)cc3)n[nH]2)cc(OC)c1 (centres undefined) [AZD4547] | 0 | 0 | 0 | 0 | 0 | 0 | 0 | 0 | 0 | 0 | 0 | 0 | 0 | 0 | 0 | 0
Nc1ncnc2c1c(COc1cccc(Cl)c1)nn2C1CCOCC1 | 0.8 | 1 | 0 | 0 | 0.5 | 0 | 0 | 0 | 0 | 0 | 0 | 0.3 | 0.6 | 0.4 | 1.9 | 0
Cn1nnc2c(C(N)=O)ncn2c1=O [Temozolomide] | 0 | 0 | 0 | 0.2 | 0 | 0.8 | 0 | 0 | 0 | 0 | 0 | 0 | 0 | 0 | 0 | 0
CNC(=O)c1cc(Oc2ccc(NC(=O)Nc3ccc(Cl)c(C(F)(F)F)c3)c(F)c2)ccn1 [Regorafenib] | 0.8 | 2 | 1.3 | 1.9 | 5.2 | 2.9 | 3.7 | 1.9 | 2.3 | 0 | 2.6 | 2.6 | 0.3 | 2.6 | 0.3 | 4
CC1(C)CCC(CN2CCN(c3ccc(C(=O)NS(=O)(=O)c4ccc(NCC5CCOCC5)c([N+](=O)[O-])c4)c(Oc4cnc5[nH]ccc5c4)c3)CC2)=C(c2ccc(Cl)cc2)C1 [Venetoclax] | 0.3 | 0 | 0 | 0 | 0 | 0 | 0 | 1.8 | 0 | 0 | 0 | 0 | 0 | 0 | 0 | 0
C[C@]12CC[C@@H]3c4ccc(O)cc4C[C@@H](CCCCCCCCC[S+]([O-])CCCC(F)(F)C(F)(F)F)[C@H]3[C@@H]1CC[C@@H]2O (some centres undefined) [Fulvestrant] | 0 | 0 | 0 | 0 | 0 | 0 | 0 | 0 | 0 | 0 | 0 | 0 | 0 | 0 | 0 | 0
COc1cc2c(NC3CCN(C(C)C)CC3)nc(C3CCCCC3)nc2cc1OCCCN1CCCC1 [UNC0638] | 2.1 | 0.5 | 1.9 | 4.7 | 5.5 | 0 | 0 | 7.6 | 1.7 | 4.3 | 3.5 | 3.1 | 0.2 | 5.4 | 6.5 | 2
COC(=O)c1ccc2c(c1)[nH]c1ncnc(NCCCN3CCCCC3)c12 [UM729] | 0.5 | 3.5 | 0 | 0.2 | 4.7 | 3.1 | 0 | 0.6 | 0 | 0.1 | 1.1 | 0.1 | 0 | 2.2 | 1.8 | 0
Cc1cc(Nc2nc(N[C@@H](C)c3ncc(F)cn3)ncc2Cl)[nH]n1 [AZD1480] | 0 | 0.8 | 0 | 0.1 | 0.8 | 0 | 0 | 0 | 0 | 0 | 0 | 0 | 0 | 1.6 | 0.3 | 0
CN(c1ncccc1CNc1nc(Nc2ccc3c(c2)CC(=O)N3)ncc1C(F)(F)F)S(C)(=O)=O | 5.2 | 9.4 | 5.1 | 7 | 6.6 | 7.9 | 7.1 | 5.3 | 6.6 | 5.3 | 4.9 | 3.6 | 3.9 | 9.5 | 7.8 | 5.7
Nc1nc(N)c2nc(-c3cccc(O)c3)c(-c3cccc(O)c3)nc2n1 [TG100-115] | 0 | 0 | 0.3 | 1.1 | 0 | 0 | 0.1 | 0.1 | 0.4 | 0 | 0.4 | 0.7 | 0 | 1.4 | 0.7 | 0
CNC(=O)c1ccc(C)c(-n2c(C)cc(OCc3ccc(F)cc3F)c(Br)c2=O)c1 | 0 | 0 | 0 | 0.3 | 0 | 0 | 0 | 0 | 0 | 0 | 0 | 0 | 0 | 0 | 0 | 0
Nc1cccc2c1C(=O)N(C1CCC(=O)NC1=O)C2=O (centres undefined) [Pomalidomide] | 0 | 0 | 0 | 0 | 0 | 0 | 0 | 0 | 0 | 0 | 0 | 0 | 0 | 0 | 0 | 0
O=C(CCCCCCNC(=O)c1cnc(N(c2ccccc2)c2ccccc2)nc1)NO [Rocilinostat] | 4.8 | 3 | 0.8 | 0.7 | 4.9 | 0.9 | 5.1 | 5.4 | 3.5 | 3.2 | 4.3 | 4.5 | 2.4 | 5.2 | 6.7 | 4.3
NC[C@@](O)(c1ccc(Cl)cc1)c1ccc(-c2cn[nH]c2)cc1 | 0 | 0.4 | 2.6 | 0 | 4.1 | 2.8 | 0.3 | 4.55 | 1.5 | 0 | 2.8 | 0 | 2.8 | 0 | 0.4 | 1.1
O=C(CCCCCCC(=O)Nc1ccc([C@H]2O[C@@H](CSc3nc(-c4ccccc4)c(-c4ccccc4)o3)C[C@@H](c3ccc(CO)cc3)O2)cc1)NO [Tubacin] | 0.4 | 0.3 | 0 | 0 | 0 | 0.4 | 4.6 | 0.25 | 4.1 | 0 | 4.2 | 2.9 | 0 | 0.4 | 0 | 5.4
CCC1(c2ccc(N)cc2)CCC(=O)NC1=O (centres undefined) [Aminoglutethimide] | 0 | 0.1 | 0 | 0.1 | 0 | 0 | 0 | 1.05 | 0 | 0 | 0 | 0 | 0.4 | 0.6 | 0 | 0
Cc1ccc(F)c(NC(=O)Nc2ccc(-c3cccc4[nH]nc(N)c34)cc2)c1 [Linifanib] | 0 | 0 | 0 | 0 | 0 | 0 | 0 | 0 | 0 | 0 | 0 | 0 | 0 | 0 | 0 | 0
NCC(=O)Nc1ccc(-n2nc(C(F)(F)F)cc2-c2ccc3c(ccc4ccccc43)c2)cc1 | 0 | 4.3 | 0 | 1.9 | 6.9 | 4.5 | 0.4 | 3.05 | 0 | 1.2 | 0 | 0 | 7.9 | 1.8 | 5.2 | 0.8
C[C@@H]1CN(CC(=O)Nc2ccc3c(c2)Cc2cccc(-c4cc(=O)cc(N5CCOCC5)o4)c2S3)C[C@H](C)O1 | 0 | 0.5 | 0 | 0.2 | 0.5 | 0 | 0.9 | 5.75 | 0.6 | 1.9 | 1 | 0.3 | 3.4 | 0.2 | 1 | 0.8
Nc1cccc2c1CN(C1CCC(=O)NC1=O)C2=O (centres undefined) [Lenalidomide] | 0 | 0 | 0 | 0 | 0 | 0 | 0 | 0.6 | 0.1 | 0 | 0 | 0 | 0 | 2.4 | 0 | 0
O=C1CCC(N2C(=O)c3ccccc3C2=O)C(=O)N1 (centres undefined) [Thalidomide] | 0.1 | 0 | 0 | 0 | 0 | 0 | 0 | 0 | 0 | 0 | 0 | 0 | 0 | 0 | 0 | 0
CO[C@@]12[C@H](COC(N)=O)C3=C(C(=O)C(C)=C(N)C3=O)N1C[C@@H]1N[C@@H]12 [Mitomycin C] | 0.1 | 0 | 2.7 | 0 | 0 | 0.8 | 0 | 0.45 | 0 | 0 | 1.6 | 0 | 3.6 | 1.9 | 3.7 | 0
CC(C)(O)CC(=O)NCCn1ccc2ncnc(Nc3ccc(Oc4cccc(C(F)(F)F)c4)c(Cl)c3)c21 [TAK-285] | 4.3 | 8.6 | 3.7 | 4.5 | 6.2 | 2.4 | 5.1 | 0.9 | 1.3 | 0 | 2.7 | 1 | 5 | 5.3 | 4.8 | 0
